From patent US20100068150A1, “Selective Caspase Inhibitors” (The Board of Trustees of the Leland Stanford Junior …, priority 2006, published 2010)
Entries after “also recorded” stand apart in the source; their conditions may differ.

Experiments:
Caspase-9 = molecular target: T1, Caspase-9 (Homo sapiens, UniProt P55211); experiment: Kinetic compound screening, progress curve method, caspase-9; type: biochemical; conditions: NI = no inhibition at concentrations tested; for Ki(app) Caspase-9: Table III, Ki(app) = Kass or Kobs/I, 50 nM active caspase-9; for Caspase-9 Ki (app): Table IV
T1 sequence (P55211 1-416): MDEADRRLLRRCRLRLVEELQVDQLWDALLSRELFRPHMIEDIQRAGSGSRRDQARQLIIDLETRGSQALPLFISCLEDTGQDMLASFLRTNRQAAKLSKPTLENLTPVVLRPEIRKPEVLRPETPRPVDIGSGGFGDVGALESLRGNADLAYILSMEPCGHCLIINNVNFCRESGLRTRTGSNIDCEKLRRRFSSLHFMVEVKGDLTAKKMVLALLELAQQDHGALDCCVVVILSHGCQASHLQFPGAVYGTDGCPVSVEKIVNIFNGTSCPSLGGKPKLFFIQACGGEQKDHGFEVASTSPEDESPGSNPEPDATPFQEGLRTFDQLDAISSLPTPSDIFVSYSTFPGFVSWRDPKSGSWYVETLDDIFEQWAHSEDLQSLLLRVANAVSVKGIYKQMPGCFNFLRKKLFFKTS
In short: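 Progress-curve method under pseudo-first-order kinetics, giving Ki(app) (kobs/I, M^−1s^−1), in caspase reaction buffer. Active enzyme at 5 nM (caspase-3, -7), 10 nM (caspase-8) or 50 nM (caspase-9), preactivated at 37 °C for 5, 10 or 40 min respectively. Some caspase-9 compounds also run with 1 M sodium citrate replacing sucrose.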

[1] = test system: endogenous caspases in intact Jurkat cells; experiment: Direct labeling of endogenous caspase activity in live Jurkat cells; type: cell-based; conditions: anti-Fas or etoposide 15 h, probe 2 h; KMB01, bAB19 10 μM; bAB06, bAB13 1 μM
[2] = test system: endogenous caspases-3, 7, 9 and exogenous recombinant caspase-8 in 293 extracts; experiment: Labeling in 293 extracts with exogenous recombinant caspase-8 and cytochrome c/dATP; type: binding
Experimental: (a.) Hypotonic 293 cytosolic extracts were induced to undergo intrinsic apoptosis by addition of cytochrome c/dATP. […] Samples were analyzed by SDS-PAGE followed by biotin blotting using streptavidin-HRP. (b) The identity of individual caspases was confirmed via immunoprecipitation using specific anti-sera for caspases-3, 7 and 9 (also see FIG. 5B for immunoprecipitation of caspases-3 and 7 after KMB01 labeling). Extracts (293) were activated with cytochrome c/dATP for 10 minutes, labeled by addition of indicated probes (100 nM final concentration for bAB06 and bAB13 and 10 μM final concentration for KMB01) and labeled caspases precipitated using specific anti-sera as described in the Methods section. I is input, P is pellet, S is supernatant after specific precipitation. […] Labeling of caspases was monitored by SDS-PAGE followed by biotin blotting with streptavidin-HRP. […]
Selective labeling of endogenous caspases in cell extracts and live cells with active site probes was carried out as follows: Hypotonic 293 cytosolic extracts were induced to undergo intrinsic apoptosis by addition of cytochrome c/dATP. […] Samples were analyzed by SDS-PAGE followed by biotin blotting using streptavidin-HRP. […] Labeling of caspases was monitored by SDS-PAGE followed by biotin blotting with streptavidin-HRP. […]
Protein concentration of hypotonic extracts was measured using a standard Bradford Protein Assay (BioRad). […]

Row | Ki(app) Caspase-9 (Caspase-9) | Caspase-9 Ki (app) (Caspase-9) | Molecule | labeling of endogenous caspases in intact cells [1] | labeling of caspases in 293 extracts with added caspase-8 ([2]; recombinant caspase-8 100 nM, cytochrome c/dATP, probes 10 μM, 30 min) | inhibition of caspases in 293 extracts with added caspase-8 ([2]; AB06 10 μM added in conjunction with cytochrome c/dATP)
1 | <5,000 M^−1s^−1 | <5,000 M-1s-1 | Cc1cccc(C)c1C(=O)OCC(=O)[C@H](CC(=O)O)NC(=O)[C@@H](NC(=O)[C@H](CCC(=O)O)NC(=O)[C@H](CC(=O)O)NC(=O)Cc1ccc(O)c([N+](=O)[O-])c1)C(C)C [AB09, Np-D-E- V-D-DMBA] |  |  | 
2 | 175,210 M^−1s^−1 | 210 M⁻¹ s⁻¹ | Bio-EVD-AOMK [KMB01, reference compound] | robust labeling of downstream caspases-3 and 7; also recorded: did not show labeling of caspase-9 | strong labeling of the endogenous caspases-3, 7, and 9 as well as the exogenously added caspase-8 | 
3 |  |  | Cc1cccc(C)c1C(=O)OCC(=O)[C@H](CC(=O)O)NC(=O)[C@@H](NC(=O)[C@H](Cc1ccncc1)NC(=O)[C@H](CC(=O)O)NC(=O)Cc1ccc(O)c([N+](=O)[O-])c1)C(C)C [AB06, Np-D-3-V-D-DMBA] |  |  | caspases-3 and 7 were selectively inhibited
